Patent US9232796B2, “Herbicidal compositions comprising 4-amino-3-chloro-5-fluoro-6-(4-chloro-2-fluoro-3-methoxyphenyl) pyridine-2-carboxylic acid or a derivative thereof and acetyl-CoA carboxylase (ACCase) inhibitors” (DOW AGROSCIENCES LLC, priority 2012, dated 2016)

Experiments:
[1] = tested on: SEBEX; test: Example V post-emergence field trials in direct-seeded rice; type: in vivo, Sesbania exaltata; details: foliar, field trial Humphrey, Arkansas, USA
Protocol: (§1) Multiple field trials were conducted under commercial grower field conditions in Tolima, Colombia; Thessaloniki, Greece; Bianze and Copiano, Italy; and Humphrey, Ark., USA. Trials sites were located in commercially grown fields of direct-seeded rice (Oryza sativa) using standard herbicide small plot research methodology. Plots varied from 2 to 3 meter (m)×5 to 8 m (width×length) with 4 replicates per treatment. The rice crop was grown using normal cultural practices for fertilization, seeding, watering, flooding and maintenance to ensure good growth of the crop and the weeds.
All treatments in the field trials were applied using a backpack compressed air/gas sprayer with flat fan nozzles (80° or 110°) calibrated to apply 187 to 300 L/ha spray volume at approximately 200-400 kPa nozzle pressure. Commercially available products of cyhalofop-butyl (Clincher 180EC, Clincher 200EC, and Clincher SF (285 gr ai/L EC)) were mixed in water at appropriate formulated product rates to achieve the desired rates based on a unit area of application (hectare) to achieve the desired rates as shown. […] Visual weed control was scored on a scale of 0 to 100 percent where 0 corresponds to no injury and 100 corresponds to complete kill.
All treatment results, both for the single product and mixtures, are an average of 4 replicates. The trial sites had naturally occurring populations of weeds. The weed spectrum included, but was not limited to, rice flatsedge (Cyperus iria, CYPIR); smallflower umbrellaplant (Cyperus difformis, CYPDI), junglerice (Echinochloa colona, ECHCO), barnyardgrass (Echinochloa crus-galli, ECHCG); multiple Echinochloa species in the same field (ECHSS), grasslike fimbristylis (Fimbristylis miliacea, FIMMI); ricefield bulrush (Schoenoplectus mucronatus, SCPMU) and hemp Sesbania (Sesbania exaltata, SEBEX). All synergistic interactions were significant at the […] level.

[2] = tested on: ECHCG; test: as above; type: in vivo, Echinochloa crus-galli; details: foliar, field trial Greece
Protocol: as §1
(§2) All treatments in the field trials were applied using a backpack compressed air/gas sprayer with flat fan nozzles (80° or 110°) calibrated to apply 187 to 300 L/ha spray volume at approximately 200-400 kPa nozzle pressure. Commercially available products of cyhalofop-butyl (Clincher 180EC, Clincher 200EC, and Clincher SF (285 gr ai/L EC)) were mixed in water at appropriate formulated product rates to achieve the desired rates based on a unit area of application (hectare) to achieve the desired rates as shown. Treatments were rate at 19 to 58 days after application (DAA) as compared to the untreated control plants. Visual weed control was scored on a scale of 0 to 100 percent where 0 corresponds to no injury and 100 corresponds to complete kill. […]

[3] = tested on: IPOHE; test: Example V (second) postemergence foliar-applied ternary mixtures, greenhouse, direct seeded rice weeds; type: in vivo, Ipomoea hederacea Jacq.
Protocol: The treated plants and control plants were placed in a greenhouse as described above and watered by sub-irrigation to prevent wash-off of the test compounds. After approximately 3 weeks, the condition of the test plants as compared with that of the untreated plants was determined visually and scored on a scale of 0 to 100 percent where 0 corresponds to no injury or growth inhibition and 100 corresponds to complete kill.
Colby's equation was used to determine the herbicidal effects expected from the mixtures (Colby, S. R. 1967. Calculation of the synergistic and antagonistic response of herbicide combinations. Weeds 15:20-22.).
The following equation was used to calculate the expected activity of mixtures containing three active ingredients, A, B, and C: Expected=A+B+C−((A×B+A×C+B×C)/100)+(A×B×C/10000)

[4] = tested on: FIMMI; test: Example V post-emergence field trials in direct-seeded rice; type: in vivo, Fimbristylis miliacea; details: foliar, field trial Tolima, Colombia
Protocol: as §1, §2

COc1c(Cl)ccc(-c2nc(C(=O)OCc3ccccc3)c(Cl)c(N)c2F)c1F [Compound A Benzyl Ester, benzyl ester of 4-amino-3-chloro-5-fluoro-6-(4-chloro-2-fluoro-3-methoxy-phenyl)pyridine-2-carboxylic acid]
Visual Weed Control (%) - 7 DAA SEBEX Obs ([1]; 24 gae/ha): 80%
Visual Weed Control (%) - 7 DAA SEBEX Obs ([1]; 32 gae/ha): 78%
Visual Weed Control (%) - 55-58 DAA ECHCG Obs ([2]; 24 gae/ha): 6%
Visual Weed Control (%) - 21 DAA IPOHE Obs ([3]; 2.19 gae/ha, upper sub-table): 30%
Visual Weed Control (%) - 21 DAA IPOHE Obs ([3]; 4.38 gae/ha, upper sub-table): 38%
Visual Weed Control (%) - 21 DAA IPOHE Obs ([3]; 8 ae/ha): 20%
Visual Weed Control (%) - 21 DAA IPOHE Obs ([3]; 8 gae/ha): 10%
Visual Weed Control (%) - 21 DAA IPOHE Obs ([3]; 8 gae/ha, lower sub-table): 15%
Visual Weed Control (%) - 21 DAA IPOHE Obs ([3]; 16 gae/ha): 30%
Visual Weed Control (%) - 21 DAA IPOHE Obs ([3]; 16 gae/ha, lower sub-table): 33%
Visual Weed Control (%) - 19 DAA FIMMI Obs ([4]; 24 gae/ha): 39%

CCCCOC(=O)[C@@H](C)Oc1ccc(Oc2ccc(C#N)cc2F)cc1 [Cyhalofop-butyl, butyl(2R)-2-[4-(4-cyano-2-fluorophenoxy)phenoxy]propanoate, reference compound]
Visual Weed Control (%) - 7 DAA SEBEX Obs ([1]; 280 gai/ha): 0%
Visual Weed Control (%) - 55-58 DAA ECHCG Obs ([2]; 300 gai/ha): 29%
Visual Weed Control (%) - 21 DAA IPOHE Obs ([3]; 17.5 gai/ha): 0%
Visual Weed Control (%) - 21 DAA IPOHE Obs ([3]; 35 gai/ha): 0%
Visual Weed Control (%) - 21 DAA IPOHE Obs ([3]; 35 gai/ha, lower sub-table): 0%
Visual Weed Control (%) - 21 DAA IPOHE Obs ([3]; 35 gai/ha, upper sub-table): 0%
Visual Weed Control (%) - 19 DAA FIMMI Obs ([4]; 190 gai/ha): 16%
